Test results reported in patent US20180243286A1, “Antibacterial compositions of a beta-lactamase inhibitor with a cephalosporin” (WOCKHARDT LIMITED, priority 2015, published 2018).

Experiments:
[1] = tested on: E. coli M50 producing CMY 6, DHA-1/2 beta-lactamase enzymes; assay: Time kill study against clinical isolate of E. coli M50; assay type: cell-based; conditions: for Bacterial count (Log10 CFU/ml) 0 hour: 0 hour (starting inoculum); for Effect on bacterial counts when used alone: throughout the duration of the study
Experimental: (§1) The killing effect of the combinations according to invention was studied by performing time kill studies. In a typical time kill study, the freshly grown cultures were diluted to the required cell density (initial starting inoculum) in Cation adjusted Muller Hinton broth medium (BD, USA). The antibacterial agents (either alone or in combination) at the required concentrations were added into the culture-containing medium. The samples were incubated under shaking condition (120 rpm) at 37° C. Enumeration of viable bacterial count was done every 2 hour by diluting in normal saline and plating on to the Tryptic Soya Agar plates (BD, USA). The plates were incubated for 24 hours to arrive at the viable bacterial count. The results are expressed in terms of log10 CFU per ml. In general, the decrease of 1 log10 CFU/ml corresponds to 90% killing of bacteria. Similarly, 2 log10 CFU/ml reductions indicates to 99% killing of bacteria and 3 log10 CFU/ml reductions is equal to 99.9% killing of bacteria.
E. coli M50 produces resistant CMY 6, DHA-1/2 beta-lactamase enzymes.

[2] = tested on: K. pneumoniae H521 producing KPC, SHV and TEM beta-lactamase enzymes; assay: Time kill study against clinical isolate of K. pneumoniae H521; assay type: cell-based; conditions: for Bacterial count (Log10 CFU/ml) 0 hour: 0 hour (starting inoculum); for Change in Log10 CFU/ml over 0 hour count after 8 hours: positive = increase; for Effect on bacterial counts when used alone: throughout the duration of the study
Experimental: as §1
K. pneumoniae H521 produces resistant KPC, SHV and TEM beta-lactamase enzymes.

[3] = agent alone 4 mcg/ml, negative = reduction

| SMILES | Bacterial count (Log10 CFU/ml) 0 hour ([1]; agent alone 4 mcg/ml) | Bacterial count (Log10 CFU/ml) 2 hour ([1]; agent alone 4 mcg/ml) | Bacterial count (Log10 CFU/ml) 4 hour ([1]; agent alone 4 mcg/ml) | Bacterial count (Log10 CFU/ml) 6 hour ([1]; agent alone 4 mcg/ml) | Bacterial count (Log10 CFU/ml) 8 hour ([1]; agent alone 4 mcg/ml) | Change in Log10 CFU/ml over 0 hour count after 8 hours [1, 3] | Bacterial count (Log10 CFU/ml) 0 hour ([2]; agent alone 4 mcg/ml) | Bacterial count (Log10 CFU/ml) 2 hour ([2]; agent alone 4 mcg/ml) | Bacterial count (Log10 CFU/ml) 4 hour ([2]; agent alone 4 mcg/ml) | Bacterial count (Log10 CFU/ml) 6 hour ([2]; agent alone 4 mcg/ml) | Bacterial count (Log10 CFU/ml) 8 hour ([2]; agent alone 4 mcg/ml) | Change in Log10 CFU/ml over 0 hour count after 8 hours ([2]; agent alone 4 mcg/ml) | Effect on bacterial counts when used alone [1] | Effect on bacterial counts when used alone [2] | also measured |
| --- | --- | --- | --- | --- | --- | --- | --- | --- | --- | --- | --- | --- | --- | --- | --- |
| C[C@@H](O)[C@H]1C(=O)N2C(C(=O)O)=C(SCCN=CN)C[C@H]12 [Imipenem] | – | – | – | – | – | – | – | – | – | – | – | – | – | – | Bacterial count (Log10 CFU/ml) 0 hour ([1]; 1 mcg/ml alone): 7.14 Log10 CFU/ml; Bacterial count (Log10 CFU/ml) 2 hour ([1]; 1 mcg/ml alone): 4.25 Log10 CFU/ml; Bacterial count (Log10 CFU/ml) 4 hour ([1]; 1 mcg/ml alone): 4.60 Log10 CFU/ml; Bacterial count (Log10 CFU/ml) 6 hour ([1]; 1 mcg/ml alone): 6.04 Log10 CFU/ml; Bacterial count (Log10 CFU/ml) 8 hour ([1]; 1 mcg/ml alone): 7.34 Log10 CFU/ml; Change in Log10 CFU/ml over 0 hour count after 8 hours ([1]; 1 mcg/ml alone, positive = increase): 0.2 Log10 CFU/ml; Bacterial count (Log10 CFU/ml) 0 hour ([2]; 8 mcg/ml alone): 7.18 Log10 CFU/ml; Bacterial count (Log10 CFU/ml) 2 hour ([2]; 8 mcg/ml alone): 8.10 Log10 CFU/ml; Bacterial count (Log10 CFU/ml) 4 hour ([2]; 8 mcg/ml alone): 8.81 Log10 CFU/ml; Bacterial count (Log10 CFU/ml) 6 hour ([2]; 8 mcg/ml alone): 8.70 Log10 CFU/ml; Bacterial count (Log10 CFU/ml) 8 hour ([2]; 8 mcg/ml alone): 9.11 Log10 CFU/ml; Change in Log10 CFU/ml over 0 hour count after 8 hours ([2]; 8 mcg/ml alone): 1.93 Log10 CFU/ml |
| C=CC1=C(C(=O)O)N2C(=O)[C@@H](NC(=O)/C(=N\OCC(=O)O)c3csc(N)n3)[C@H]2SC1 [Cefixime] | 7.14 Log10 CFU/ml | 8.95 Log10 CFU/ml | 8.40 Log10 CFU/ml | 8.90 Log10 CFU/ml | 8.65 Log10 CFU/ml | 1.51 Log10 CFU/ml | 7.18 Log10 CFU/ml | 8.26 Log10 CFU/ml | 8.85 Log10 CFU/ml | 8.98 Log10 CFU/ml | 8.95 Log10 CFU/ml | 1.77 Log10 CFU/ml | – | – | – |
| CO/N=C(\C(=O)N[C@@H]1C(=O)N2C(C(=O)O)=C(COC(N)=O)CS[C@H]12)c1ccco1 [Cefuroxime] | 7.14 Log10 CFU/ml | 8.33 Log10 CFU/ml | 8.54 Log10 CFU/ml | 9.20 Log10 CFU/ml | 8.65 Log10 CFU/ml | 1.51 Log10 CFU/ml | 7.18 Log10 CFU/ml | 8.48 Log10 CFU/ml | 8.70 Log10 CFU/ml | 8.78 Log10 CFU/ml | 8.60 Log10 CFU/ml | 1.42 Log10 CFU/ml | did not reduce the bacterial counts | did not reduce the bacterial counts | – |
| NCCONC(=O)[C@@H]1CC[C@@H]2CN1C(=O)N2OS(=O)(=O)O [Compound of Formula (I), (2S,5R)—N-(2-aminoethoxy)-7-oxo-6-(sulfoxy)-1,6-diazabicyclo[3.2.1]octane-2-carboxamide] | 7.14 Log10 CFU/ml | 6.40 Log10 CFU/ml | 5.32 Log10 CFU/ml | 5.32 Log10 CFU/ml | 5.34 Log10 CFU/ml | −1.8 Log10 CFU/ml | 7.18 Log10 CFU/ml | 7.98 Log10 CFU/ml | 8 Log10 CFU/ml | 8.37 Log10 CFU/ml | 8.04 Log10 CFU/ml | 0.86 Log10 CFU/ml | did not reduce the bacterial counts | did not reduce the bacterial counts | – |
| Nc1nc(/C(=C/CC(=O)O)C(=O)N[C@@H]2C(=O)N3C(C(=O)O)=CCS[C@H]23)cs1 [Ceftibuten] | 7.14 Log10 CFU/ml | 7.90 Log10 CFU/ml | 8.40 Log10 CFU/ml | 8.98 Log10 CFU/ml | 8.93 Log10 CFU/ml | 1.79 Log10 CFU/ml | 7.18 Log10 CFU/ml | 8.18 Log10 CFU/ml | 8.88 Log10 CFU/ml | 8.40 Log10 CFU/ml | 8.60 Log10 CFU/ml | 1.42 Log10 CFU/ml | did not reduce the bacterial counts | did not reduce the bacterial counts | – |
| COCC1=C(C(=O)O)N2C(=O)[C@@H](NC(=O)/C(=N\OC)c3csc(N)n3)[C@H]2SC1 [Cefpodoxime] | 7.14 Log10 CFU/ml | 8.18 Log10 CFU/ml | 8.88 Log10 CFU/ml | 8.95 Log10 CFU/ml | 8.40 Log10 CFU/ml | 1.26 Log10 CFU/ml | 7.18 Log10 CFU/ml | 8.60 Log10 CFU/ml | 8.74 Log10 CFU/ml | 8.93 Log10 CFU/ml | 8.81 Log10 CFU/ml | 1.63 Log10 CFU/ml | – | – | – |
